The values that follow come from patent publication US6635628B2, “Methods of administering camptothecin compounds for the treatment of cancer with reduced side effects” (The George Washington University, priority 1998, dated 2003).

The conditions of series [1]: CPT-11 metabolite formed by hepatic cytochrome P-450 3A; cited from earlier work.
For series [2] the following is noted: bile acid micelles; cited from earlier work.
For series [3], the system named is ileal cells. It counts as in vitro ADME, hamster. The method, then: (§1) The other drugs were dissolved in distilled water. […] DNP-SG was made from glutathione and CDNB (1-chloro-2,4-dinitro benzene) chemically. All other reagents were of analytical grade. Adult male Golden Syrian hamsters (6-8 weeks age), whose model presents a bile acid profile similar to that observed in human (28), were used.
(§2) Intestinal cells were isolated as previously described (28, 29). Briefly, male hamsters were anesthetized with sodium pentobarbital (Nembutol 70 mg/kg body weight). The entire intestine was removed. The intestinal lumen was washed with 37° C. Hank's solution. Sacs of the ileum (12.5 cm from cecum) and jejunum (remaining small intestine) were rinsed, as well as the intestinal sacs of the anal site of small intestine (12.5 cm from cecum) and oral site (the other small intestine). The sacs were rinsed with oxygenated buffer solution containing sodium citrate (96 mM NaCl, 1.5 mM KCl, 5.6 mM KH2PO4, 27 mM sodium citrate, pH 7.3), and incubated for 10 min in the same buffer at 37° C. The sacs were then emptied, filled with oxygenated buffer solution containing EDTA (140 mM NaCl, 16 mM Na2HPO4, 2 mM EDTA, 0.5 mM dithiothreitol, pH 7.3), incubated for 10 min at 37° C. Then each sac was placed onto a petri dish and gently vortexed for 1 min. The buffer containing intestinal cells was recovered in 50 mL of Hanks' solution, washed twice and adjusted at 10^6 cells/ml in Hanks' medium (cellular stock solution containing 0.5% bovine serum albumin, pH 7.4).
(§3) The cellular suspension of 0.95 ml was incubated for 15 min in a 37° C. water bath with stirring. Uptake was started by the addition of 0.05 ml PBS (at pH 3 or 9) containing labeled SN-38 or CPT-11 at 37° C. At various time intervals, 100 μL, sample aliquots were diluted into 3 mL of Hank's medium at 4° C. to stop the uptake. The stop solution containing the cells was filtered through a glass microfiber filter (Glass Fiber Filter Circles G4, Fisherbrand, Pa.) under vacuum (20 psi). The cells were washed once with 5 mL of 0.5% bovine serum albumin-containing Hanks' medium (4° C.) and once with 20 mL of Hanks' solution (4° C.). The filters were placed in a vial containing 4 mL of scintillation liquid (Ultra Gold, Packard, Conn.) and the radioactivity was counted in a β scintillation counter (LS3801, Beckman, Md.).
(§4) The effect of the metabolic inhibitor, 2,4 dinitrophenol (1 mM), was studied by adding this agent to the cells 3 min prior to either ^14C-CPT-11 or ^14C-SN-38 (2 μM). The effect of 20 mM of taurocholic acid (TCA) on the uptake of both CPT-11 and SN-38 was investigated following overnight incubation of ^14C-CPT-11 (20 μM) and ^14C-SN-38 (2 μM) in Hank's solution, at pH 7.4 and in the presence and absence of TCA. The effect of 200 μM of DNP-SG or SN-38-Glu was also studied by adding these agents to the cell preparation 7 min prior to either ^14C-CPT-11 (20 μM) and ^14C-SN-38 (2 μM).
(§5) The initial rate of uptake of CPT-11 or SN-38 was derived from the linear regression analysis of the respective regression line obtained from the plot of the uptake as a function of time. The initial rates of uptake were plotted against the corresponding concentration. The data were fitted by least-squares nonlinear regression analysis (SigmaStat, Jandel Scientific, CA), using the equation V=(Vmax·S)/(Km+S)+Kd·S where V represents the initial rate of uptake. Vmax is the maximum rate of uptake, Km is the apparent Michaelis constant, Kd is the rate of diffusion and S is the concentration of CPT-11 or SN-38.

In series [4] the test system is isolated intestinal cells from jejunum. The class given is in vitro ADME, hamster. On the procedure: as §1, §2, §3, §4, §5
Series [5] concerns intestinal cells from whole small-intestine. Put plainly: Uptake of 14C-labeled CPT-11 and SN-38 by intestinal cells, regions combined or not distinguished (TCA, pH, bicarbonate effects). The following applies: for uptake rate of the lactone compared with the carboxylate form: cells from both intestinal regions; for saturability of the uptake (predominant component): SN-38 concentrations lower than 2 μM. On the procedure: By adding the drugs to Hank's solution containing intestinal cells from whole small-intestine, uptake studies were performed.
as §2, §3, §4
The effect of physiologic pH on the initial intestinal uptake rate of CPT-11 and SN-38 was investigated following overnight incubation of ^14C-CPT-11 (20 μM) and ^14C-SN-38 (2 μM) in phosphate buffered saline at pH 6.2, 6.8, 7.4 and 8, respectively.
as §5

The conditions of series [6]: bile of two men treated by cisplatin who received CPT-11 intravenously; cited from earlier work.
The conditions of series [7]: cited from earlier work.
The conditions of series [8]: cited from earlier work. This is another data set of the same source.
Series [9] is classed as physicochemical. The conditions noted are these: 1,000-molecular weight cut-off membrane. The source says: Monomers were separated from micellar aggregates by ultrafiltration through a 1000-molecular weight cut-off membrane (YM1) as described in Materials and Methods. Values are the monomeric forms of the indicated metabolites, expressed as a percentage (%) of the concentration of the initial solution before ultrafiltration. Comparison between TCA and control was estimated by Mann-Whitney test. […] Abbreviations used: CPT lactone (CPT lact.); CPT carboxylate (CPT carb.); SN-38 lactone (SN lact.); and SN-38 carboxylate (SN carb.).

[10] abbreviates: % of control, inhibitor 200 μM added 7 min before [14C]CPT-11 (20 μM), n=5.
The mark [11] stands for this setting: % of control, inhibitor 200 μM added 7 min before [14C]SN-38 (2 μM), n=5.
Where [12] appears, read: 20 μM 14C-CPT-11, 2 μM 14C-SN-38.
[13] abbreviates: % of control, inhibitor 1 mM added 3 min before [14C]CPT-11 (20 μM), n=5.
Setting [14] is: % of control, inhibitor 1 mM added 3 min before [14C]SN-38 (2 μM), n=5.

“Also recorded” adds a separate entry of the source. Like-named read-outs stand apart in the source and are kept apart here. Marks after values point to notes of the source that are not given here.

As for `CCc1c2c(nc3ccc(OC(=O)N4CCC(NCCCCC(=O)O)CC4)cc13)-c1cc3c(c(=O)n1C2)COC(=O)C3(O)CC` (stereo not drawn) [7-ethyl-10-[4-N-(5-aminopentanoic acid)-1-piperidino]carbonyloxycamptothecin], the “antitumor activity weaker than SN-38” value in series [1] is given as 500 fold.

Regarding `CCCCCCCC/C=C\CCCCCCCC(=O)O` [oleic acid], in series [2], the “percentage of the monomer concentration (comparison values)” value is on record as 2.3%.

`CCc1c2c(nc3ccc(O[C@@H]4O[C@H](C(=O)O)[C@@H](O)[C@H](O)[C@H]4O)cc13)-c1cc3c(c(=O)n1C2)COC(=O)[C@]3(O)CC` [SN38-Glu, SN-38 β-glucuronide]: the “initial uptake rate of CPT-11 carboxylate, ileum” value in [3] (setting [10]) is listed as 93.9%. Moreover, the “initial uptake rate of SN-38 carboxylate, ileum” value in series [3] (setting [11]) is reported as 28.9* %. Also, in series [4] (setting [10]), the “initial uptake rate of CPT-11 carboxylate, jejunum” value is 108.9% and the “initial uptake rate of CPT-11 lactone, jejunum” value came out at 88.9%. In addition, in series [4] (setting [11]), the “initial uptake rate of SN-38 carboxylate, jejunum” value is 40.1* % and the “initial uptake rate of SN-38 lactone, jejunum” value came out at 54.3%. In series [5] (intestinal region not given), the “effect of the added agent on the uptake of CPT-11 carboxylate” value was “remained unchanged”, the “effect of the added agent on the uptake rate of CPT-11 lactone” value (from here on “effect … of CPT-11 lactone”) was “not significantly affected” and the “effect of the added agent on the uptake rate of SN-38 lactone” value (shortened to “effect … of SN-38 lactone”) is on record as “not significantly affected”. Moreover, in series [6], the “share of the biliary content” value is 7.3-18.9%.

Regarding `N[C@@H](CCC(=O)N[C@@H](CSc1ccc([N+](=O)[O-])cc1[N+](=O)[O-])C(=O)NCC(=O)O)C(=O)O` [DNP-SG, 2,4-dinitrophenyl-S-glutathione], in series [3], the “initial uptake rate of CPT-11 carboxylate, ileum” value is 105.8% and the “initial uptake rate of SN-38 carboxylate, ileum” value was 28.5* %. Moreover, in [4], the “initial uptake rate of CPT-11 carboxylate, jejunum” value stood at 103.2%; the “initial uptake rate of CPT-11 lactone, jejunum” value is recorded as 105.4%; the “initial uptake rate of SN-38 carboxylate, jejunum” value is given as 32.0* %; the “initial uptake rate of SN-38 lactone, jejunum” value came to 78.8%. The “effect … of SN-38 lactone” value in series [5] is “not significantly affected”. For the same compound, in [5] (intestinal region not given), the “effect of the added agent on the uptake of CPT-11 carboxylate” value was “remained unchanged” and the “effect … of CPT-11 lactone” value is “not significantly affected”.

As for `CCc1c2c(nc3ccc(OC(=O)N4CCC(N5CCCCC5)CC4)cc13)-c1cc3c(c(=O)n1C2)COC(=O)[C@]3(O)CC.Cl` [CPT-11, (4S)-4,11-diethyl-4-hydroxy-9-[(4-piperidinopiperidino)carbonyloxy]1H-pyrano [3′,4′:6,7] indolizino[1,2-b]quinoline-3,14(4 h, 12H)dione hydrochloride], in series [5], the “initial uptake rate at acidic pH (pH 6.2 and 6.8) versus neutral or alkaline pH (pH 7.4 and 8)” value is “several times greater”. Also, the “initial uptake rate in the presence of 20 mM TCA” value in series [5] (cells from jejunum and ileum combined, 14C-CPT-11 20 μM, 14C-SN-38 2 μM, pH 7.4, mean±SD, n=5) is 48.5±10.8 % of control without TCA. In [5] (pH 6.2 to 8, 20 μM 14C-CPT-11, 2 μM 14C-SN-38), the “decrease of the uptake rate at a pH greater than 6.8” value is reported as “around 65%”. For the same compound, the “uptake when HEPES of the Hank's buffer was replaced by sodium bicarbonate” value in [5] (pH adjusted to greater than 7) was “decreased”. Besides, the “share in lactone form at pH 7.4” value in [7] is listed as 13%. Moreover, the “incidence of grade 4 diarrhea” value was 17% in series [8] (before adoption of loperimide therapy) and 5% in series [8] (following adoption of an aggressive loperimide therapy). Further, the “share of the biliary content” value in series [6] is on record as 75.6-91.9%.

As to `CCc1c2c(nc3ccc(OC(=O)N4CCC(N5CCCCC5)CC4)cc13)-c1cc3c(c(=O)n1C2)COC(=O)[C@]3(O)CC` [CPT-11 lactone], the “transport mechanism in intestinal cells” value in series [5] is recorded as “passively transported”. In addition, the “uptake rate of the lactone compared with the carboxylate form” value in series [5] (setting [12]) is listed as “more rapidly taken up; also recorded: several times greater”. In series [5] (jejunal and ileal cells), the “Kd lower than that of SN-38 lactone” value is given as 1.8-2.5 fold and the “saturability of the uptake (predominant component)” value is given as “non-saturable”. Besides, the “effect of TCA on % monomer concentration / association to TCA micelles” value in [9] is “significantly decreased”.

With `O=[N+]([O-])c1ccc(O)c([N+](=O)[O-])c1` [Dinitrophenol, 2,4-dinitrophenol], in series [3] (setting [13]), the “initial uptake rate of CPT-11 carboxylate, ileum” value is recorded as 29.2% and the “initial uptake rate of CPT-11 lactone, ileum” value is given as 105.5%. For the same compound, in series [3] (setting [14]), the “initial uptake rate of SN-38 carboxylate, ileum” value was determined as 30.8% and the “initial uptake rate of SN-38 lactone, ileum” value worked out at 134.9%. For the same compound, in series [4] (setting [13]), the “initial uptake rate of CPT-11 carboxylate, jejunum” value worked out at 22.6% and the “initial uptake rate of CPT-11 lactone, jejunum” value is reported as 94.1%. For the same compound, in series [4] (setting [14]), the “initial uptake rate of SN-38 carboxylate, jejunum” value was 25.5% and the “initial uptake rate of SN-38 lactone, jejunum” value came to 96.1%. In series [5] (intestinal region not given), the “effect … of CPT-11 lactone” value is “not significantly affected” and the “effect … of SN-38 lactone” value is on record as “not significantly affected”.

With `CC(C)CCC[C@@H](C)[C@H]1CC[C@H]2[C@@H]3CC=C4C[C@@H](O)CC[C@]4(C)[C@H]3CC[C@]12C` [cholesterol], the “percentage of the monomer concentration (comparison values)” value in [2] is 3%.

On to `CCc1c2c(nc3ccc(O)cc13)-c1cc3c(c(=O)n1C2)COC(=O)[C@]3(O)CC` [SN-38 lactone], for which, in series [5], the “transport mechanism in intestinal cells” value is given as “passively transported”. Also, the “uptake rate of the lactone compared with the carboxylate form” value in [5] (setting [12]) is “more rapidly taken up; also recorded: several times greater”. In addition, the “saturability of the uptake (predominant component)” value in [5] (jejunal and ileal cells) is listed as “mostly non-saturable”. For the same compound, the “effect of TCA on % monomer concentration / association to TCA micelles” value in series [9] is recorded as “significantly decreased”.

For `CCc1c2c(nc3ccc(OC(=O)N4CCC(N5CCCCC5)CC4)cc13)-c1cc([C@@](O)(CC)C(=O)O)c(CO)c(=O)n1C2` [CPT-11 carboxylate], the Km (in general, the concentration of substrate that gives half-maximal velocity) in [3] (ileum, fit V=(Vmax·S)/(Km+S)+Kd·S, mean, read-out: Km (apparent Michaelis constant of uptake)) was 50.5 µM; in series [4] (jejunum, fit V=(Vmax·S)/(Km+S)+Kd·S, mean, read-out: Km (apparent Michaelis constant of uptake)), 51.3 µM. The “Vmax (maximum rate of uptake)” value in [3] (ileum, nonlinear regression fit, mean) is recorded as 157.3 p mol · 10 ^6 cells^−1 · min^−1; in series [4] (jejunum, nonlinear regression fit, mean) it was 146.9 p mol · 10 ^6 cells^−1 · min^−1. For the same compound, the “transport mechanism in intestinal cells” value in series [5] was “actively absorbed”.
